Reference: US20230293539A1, “MLL1-WDR5 PROTEIN-PROTEIN INTERACTION INHIBITOR COMPOUNDS AND USES THEREOF” (HUYABIO International, LLC, priority 2022, published 2023)
Like-named read-outs stand apart in the source and are kept apart here.

Tests used:
BRD2-BD1 = target: T1, BRD2-BD1 (Homo sapiens, UniProt P25440); experiment: Selectivity panel (Table 3); format: binding
T1 construct: BRD2-BD1

BRD2-BD2 = target: T2, BRD2-BD2 (Homo sapiens, UniProt P25440); experiment: Selectivity panel (Table 3); format: binding
T2 construct: BRD2-BD2

HDAC8 = HDAC8 (Homo sapiens, UniProt Q9BY41); experiment: Selectivity panel (Table 3); format: biochemical
KRAS G12C = KRAS G12C (Homo sapiens, UniProt P01116, G12C); experiment: Selectivity panel (Table 3); format: binding
KRAS G12V = KRAS G12V (Homo sapiens, UniProt P01116, G12V); experiment: Selectivity panel (Table 3); format: binding
POLQ ATPase = POLQ ATPase (Homo sapiens, UniProt O75417); experiment: Selectivity panel (Table 3); format: biochemical
POLQPolymerase = POLQPolymerase (Homo sapiens, UniProt O75417); experiment: Selectivity panel (Table 3); format: biochemical
PRMT5 = PRMT5 (Homo sapiens, UniProt O14744); experiment: Selectivity panel (Table 3); format: biochemical
TEAD3 = TEAD3 (Homo sapiens, UniProt Q99594); experiment: Selectivity panel (Table 3); format: binding
Mouse PK (oral) = format: in vivo, C57/B16 mice; settings: for Cmax: plasma; for AUC(0-t) / half-life: C57/B16, plasma
Procedure: Mouse PK: Animals were dosed with a single intravenous bolus or oral gavage administration in naïve C57/B16 mice (Beijing Vital River Laboratory Animal Co., LTD). Blood samples were collected at the respective sampling time points. The quantification of compound concentrations in mouse or rat plasma was quantified using LC-MS/MS method. Plasma concentration versus time data was analyzed by non-compartmental mode approaches using the WinNonlin software program (version 6.3 or above, Pharsight). Pharmacokinetic parameters, including C0 (initial concentration after drug administration), […], Vdss (volume of distribution), Cmax (maximum peak concentration of the drug), Tmax (time required to reach Cmax) T1/2 (time required for drug concentration to decrease by 50% after administration), AUC0-last (area under the concentration-time curve from dosing time t=0 to the time of the last measured concentration), AUC0-inf (total drug exposure across time), MRT0-last (mean residence time from dosing time t=0 to the time of the last measured concentration), MRT0-inf f (mean residence time of total drug exposure), bioavailability (%) (the percentage (or the fraction F) of an administered drug dose that reaches the systemic circulation) for IV and PO groups were calculated. See Table 7 and FIGS. 6A, 6B, 6C and 6D.

[1] = Metabolite ID in Liver S9; format: in vitro ADME; settings: HBI-2375 and metabolites in Mouse liver S9
[2] = Metabolite ID in Liver S9; format: in vitro ADME; settings: HBI-2375 and metabolites in Rat liver S9
Metabolite ID in plasma [3] = format: in vitro ADME; settings: HBI-2375 and metabolites in Mouse plasma
Metabolite ID in plasma [4] = format: in vitro ADME; settings: HBI-2375 and metabolites in Dog plasma
[5] = PK profile of HBI-2375 in plasma, brain and CSF in SD rats; format: in vivo; settings: for AUC(0-t) / Cmax / MRT last / Tmax / Kp: rat; for Kp: po, 40 mg/kg, read-out: AUClast Ratio Tissue/Plasma
Procedure: EXAMPLE 3: PK profile of HBI-2375 (compound of Formula (IIIb) (HYBI-084) in plasma, brain, and cerebrospinal fluid (CSF) in SD rats: This study was conducted in accordance with the Study Protocol and Pharmaron (Ningbo) TSP's Standard Operating Procedures (SOPs) following all regulatory protocols. This study was conducted under non-GLP environment.
The maximal concentrations of HBI-2375 in CSF for males and females were at 1 hr post-dose. The maximal concentrations of HBI-2375 in brain were at 15 min post-dose for males and at 1 hr post-dose for females. The mean values of AUClast for HBI-2375 from high to low were: brain>plasma>CSF for males, and plasma>brain>CSF for females.
Following a single oral gavage administration of HBI-2375 at 40 mg/kg in SD rats, concentrations of HBI-2375 in plasma, brain, and CSF were determined by LC-MS/MS methods. […] The maximal concentrations of HBI-2375 in CSF for males and females were at 1 hr post-dose. The maximal concentrations of HBI-2375 in brain were at 15 min post-dose for males and at 1 hr post-dose for females.

[6] = Sprague-Dawley, SD rats, single PO 40 mg/kg, CSF, female
[7] = Sprague-Dawley, SD rats, single PO 40 mg/kg, CSF, male
[8] = Sprague-Dawley, SD rats, single PO 40 mg/kg, brain, female
[9] = Sprague-Dawley, SD rats, single PO 40 mg/kg, brain, male
[10] = Sprague-Dawley, SD rats, single PO 40 mg/kg, plasma, female
[11] = Sprague-Dawley, SD rats, single PO 40 mg/kg, plasma, male
[12] = both sexes, SD rats, single PO 40 mg/kg, brain, mean of male and female
[13] = both sexes, SD rats, single PO 40 mg/kg, plasma, mean of male and female

Chain of POLQ ATPase (O75417 whole entry): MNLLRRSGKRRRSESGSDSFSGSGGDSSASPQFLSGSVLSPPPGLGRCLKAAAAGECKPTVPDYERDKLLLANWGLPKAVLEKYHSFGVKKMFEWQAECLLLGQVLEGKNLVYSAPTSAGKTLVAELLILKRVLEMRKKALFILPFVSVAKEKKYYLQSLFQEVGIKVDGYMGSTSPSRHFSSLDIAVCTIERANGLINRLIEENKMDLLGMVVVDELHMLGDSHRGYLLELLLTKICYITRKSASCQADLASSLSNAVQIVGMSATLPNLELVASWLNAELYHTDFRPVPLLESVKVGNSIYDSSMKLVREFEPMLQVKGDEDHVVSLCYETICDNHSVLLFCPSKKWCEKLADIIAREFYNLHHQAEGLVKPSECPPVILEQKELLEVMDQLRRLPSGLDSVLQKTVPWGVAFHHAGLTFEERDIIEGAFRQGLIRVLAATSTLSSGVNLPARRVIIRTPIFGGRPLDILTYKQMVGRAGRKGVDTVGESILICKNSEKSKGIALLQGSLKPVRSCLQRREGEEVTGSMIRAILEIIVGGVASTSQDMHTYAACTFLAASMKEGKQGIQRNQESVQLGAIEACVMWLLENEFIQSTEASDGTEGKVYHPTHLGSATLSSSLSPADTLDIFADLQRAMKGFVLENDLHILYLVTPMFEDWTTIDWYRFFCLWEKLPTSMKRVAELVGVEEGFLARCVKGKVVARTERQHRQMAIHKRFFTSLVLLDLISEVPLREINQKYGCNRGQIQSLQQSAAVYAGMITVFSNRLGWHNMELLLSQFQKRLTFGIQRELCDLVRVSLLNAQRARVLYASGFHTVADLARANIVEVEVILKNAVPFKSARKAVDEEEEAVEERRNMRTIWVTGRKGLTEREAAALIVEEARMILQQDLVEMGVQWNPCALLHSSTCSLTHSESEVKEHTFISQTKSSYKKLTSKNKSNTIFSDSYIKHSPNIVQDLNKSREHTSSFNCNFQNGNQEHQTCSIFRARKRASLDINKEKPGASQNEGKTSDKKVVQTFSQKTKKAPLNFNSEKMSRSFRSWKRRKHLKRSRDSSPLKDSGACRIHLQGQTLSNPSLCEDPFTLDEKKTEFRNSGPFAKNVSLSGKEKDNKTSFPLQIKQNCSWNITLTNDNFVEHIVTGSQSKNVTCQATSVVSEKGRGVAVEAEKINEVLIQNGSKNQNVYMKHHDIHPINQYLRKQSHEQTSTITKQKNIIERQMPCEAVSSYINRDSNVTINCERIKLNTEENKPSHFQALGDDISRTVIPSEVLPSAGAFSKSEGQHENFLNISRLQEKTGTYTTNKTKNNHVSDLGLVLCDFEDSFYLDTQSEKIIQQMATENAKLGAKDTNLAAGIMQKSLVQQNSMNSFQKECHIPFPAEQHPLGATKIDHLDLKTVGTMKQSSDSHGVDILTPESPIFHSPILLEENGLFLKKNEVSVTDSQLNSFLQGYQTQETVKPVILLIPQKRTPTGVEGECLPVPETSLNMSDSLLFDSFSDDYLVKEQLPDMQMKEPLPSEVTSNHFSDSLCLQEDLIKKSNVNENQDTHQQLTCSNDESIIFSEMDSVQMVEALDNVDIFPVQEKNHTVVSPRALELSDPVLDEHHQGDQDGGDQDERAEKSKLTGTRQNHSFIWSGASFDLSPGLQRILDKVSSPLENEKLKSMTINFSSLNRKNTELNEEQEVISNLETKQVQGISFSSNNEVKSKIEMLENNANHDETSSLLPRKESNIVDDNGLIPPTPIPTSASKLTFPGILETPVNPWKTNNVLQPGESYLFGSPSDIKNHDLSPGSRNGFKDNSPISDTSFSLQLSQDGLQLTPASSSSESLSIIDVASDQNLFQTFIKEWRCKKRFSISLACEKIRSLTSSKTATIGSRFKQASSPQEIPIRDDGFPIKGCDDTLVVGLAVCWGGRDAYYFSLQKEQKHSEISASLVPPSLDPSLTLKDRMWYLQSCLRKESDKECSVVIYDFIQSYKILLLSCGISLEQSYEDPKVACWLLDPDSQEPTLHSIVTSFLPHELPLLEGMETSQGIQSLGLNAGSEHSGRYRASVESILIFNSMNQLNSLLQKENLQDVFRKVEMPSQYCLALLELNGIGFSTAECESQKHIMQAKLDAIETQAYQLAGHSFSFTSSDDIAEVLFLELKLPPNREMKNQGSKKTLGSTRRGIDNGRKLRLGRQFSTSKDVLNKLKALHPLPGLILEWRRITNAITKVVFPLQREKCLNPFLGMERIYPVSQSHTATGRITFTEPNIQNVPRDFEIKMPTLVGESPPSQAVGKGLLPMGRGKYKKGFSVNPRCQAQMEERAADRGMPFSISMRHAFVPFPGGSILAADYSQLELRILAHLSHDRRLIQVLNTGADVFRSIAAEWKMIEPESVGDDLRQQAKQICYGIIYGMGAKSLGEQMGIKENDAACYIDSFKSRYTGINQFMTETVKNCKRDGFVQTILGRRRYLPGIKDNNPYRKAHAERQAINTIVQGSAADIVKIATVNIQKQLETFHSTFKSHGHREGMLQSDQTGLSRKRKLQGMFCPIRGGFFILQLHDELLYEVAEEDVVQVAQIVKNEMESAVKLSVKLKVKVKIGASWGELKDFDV
Chain of POLQPolymerase (O75417 whole entry): as above
Chain of KRAS G12V (P01116 1-188 isoform P01116-2 G12V): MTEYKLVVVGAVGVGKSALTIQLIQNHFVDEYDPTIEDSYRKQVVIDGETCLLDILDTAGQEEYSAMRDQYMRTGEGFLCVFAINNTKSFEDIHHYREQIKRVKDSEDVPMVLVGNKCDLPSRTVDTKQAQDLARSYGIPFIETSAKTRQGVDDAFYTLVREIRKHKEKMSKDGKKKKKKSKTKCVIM
Chain of PRMT5 (O14744 whole entry, species assumed): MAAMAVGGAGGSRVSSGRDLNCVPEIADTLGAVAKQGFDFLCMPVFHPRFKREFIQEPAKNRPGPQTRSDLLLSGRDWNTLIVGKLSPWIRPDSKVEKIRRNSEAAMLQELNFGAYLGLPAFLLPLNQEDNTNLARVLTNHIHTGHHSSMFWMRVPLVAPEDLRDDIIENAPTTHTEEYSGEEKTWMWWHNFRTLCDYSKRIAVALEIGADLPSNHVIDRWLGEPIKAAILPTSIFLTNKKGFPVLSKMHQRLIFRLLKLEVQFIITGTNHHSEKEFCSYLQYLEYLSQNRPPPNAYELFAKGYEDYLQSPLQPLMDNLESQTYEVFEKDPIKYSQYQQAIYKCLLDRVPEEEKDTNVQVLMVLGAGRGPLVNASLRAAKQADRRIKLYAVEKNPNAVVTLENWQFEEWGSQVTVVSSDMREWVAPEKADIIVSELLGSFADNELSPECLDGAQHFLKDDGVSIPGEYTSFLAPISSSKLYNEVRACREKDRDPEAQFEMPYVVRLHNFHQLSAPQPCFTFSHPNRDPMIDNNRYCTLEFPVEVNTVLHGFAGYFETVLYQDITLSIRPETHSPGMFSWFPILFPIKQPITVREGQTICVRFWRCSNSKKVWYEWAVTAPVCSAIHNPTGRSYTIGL
Chain of PRMT5 (Q9BQA1 whole entry partner, species assumed): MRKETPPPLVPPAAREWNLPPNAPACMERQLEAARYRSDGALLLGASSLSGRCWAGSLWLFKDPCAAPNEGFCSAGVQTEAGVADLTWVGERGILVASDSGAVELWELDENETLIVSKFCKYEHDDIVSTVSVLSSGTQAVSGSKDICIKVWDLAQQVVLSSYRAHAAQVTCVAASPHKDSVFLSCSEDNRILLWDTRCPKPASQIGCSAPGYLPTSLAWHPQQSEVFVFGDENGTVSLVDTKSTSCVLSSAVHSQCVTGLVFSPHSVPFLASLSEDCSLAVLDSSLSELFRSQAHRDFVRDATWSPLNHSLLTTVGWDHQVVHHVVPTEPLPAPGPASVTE
Chain of KRAS G12C (P01116 1-188 isoform P01116-2 G12C): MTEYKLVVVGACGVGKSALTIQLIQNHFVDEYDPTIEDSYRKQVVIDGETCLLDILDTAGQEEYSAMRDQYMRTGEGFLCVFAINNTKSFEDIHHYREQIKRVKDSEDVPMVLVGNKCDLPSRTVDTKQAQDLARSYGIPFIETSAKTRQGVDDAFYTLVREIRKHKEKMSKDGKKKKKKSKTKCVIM
Chain of TEAD3 (Q99594 whole entry, species assumed): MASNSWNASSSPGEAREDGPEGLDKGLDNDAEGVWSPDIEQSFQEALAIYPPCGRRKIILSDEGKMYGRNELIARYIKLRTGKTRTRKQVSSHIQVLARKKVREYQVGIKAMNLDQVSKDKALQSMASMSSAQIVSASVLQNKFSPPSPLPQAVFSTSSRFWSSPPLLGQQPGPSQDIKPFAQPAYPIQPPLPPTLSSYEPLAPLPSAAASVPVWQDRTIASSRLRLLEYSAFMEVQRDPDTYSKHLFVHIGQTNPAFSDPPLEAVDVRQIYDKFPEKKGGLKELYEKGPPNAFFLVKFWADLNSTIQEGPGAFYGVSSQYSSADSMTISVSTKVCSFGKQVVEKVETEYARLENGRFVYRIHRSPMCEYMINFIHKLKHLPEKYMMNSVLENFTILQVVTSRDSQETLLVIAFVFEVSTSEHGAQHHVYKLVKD
T2 sequence (P25440 344-453 limits assumed): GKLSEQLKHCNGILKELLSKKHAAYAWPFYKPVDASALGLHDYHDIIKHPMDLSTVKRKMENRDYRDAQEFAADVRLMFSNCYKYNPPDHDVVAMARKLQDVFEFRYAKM
Chain of HDAC8 (Q9BY41 whole entry, species assumed): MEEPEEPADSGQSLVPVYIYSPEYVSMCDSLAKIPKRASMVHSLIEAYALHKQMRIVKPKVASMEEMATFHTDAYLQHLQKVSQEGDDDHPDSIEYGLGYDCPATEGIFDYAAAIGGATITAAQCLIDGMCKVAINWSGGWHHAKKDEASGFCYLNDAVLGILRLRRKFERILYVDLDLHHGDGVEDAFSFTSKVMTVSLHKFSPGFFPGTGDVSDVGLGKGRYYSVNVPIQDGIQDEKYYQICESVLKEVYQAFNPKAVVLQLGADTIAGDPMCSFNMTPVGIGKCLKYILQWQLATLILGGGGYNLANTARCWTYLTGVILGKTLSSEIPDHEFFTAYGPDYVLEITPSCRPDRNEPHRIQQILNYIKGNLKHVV
T1 sequence (P25440 74-180 limits assumed): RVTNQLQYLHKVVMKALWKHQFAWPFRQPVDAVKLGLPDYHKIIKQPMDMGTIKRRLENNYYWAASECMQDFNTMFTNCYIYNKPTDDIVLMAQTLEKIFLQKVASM

Question: Which IC50 (BRD2-BD1) does the source give for `Cc1c(F)c(N)cc(C(=O)Nc2cc(-n3cc(C(=O)N4CCN(C)CC4)nn3)c(F)cc2N2C[C@@H](C)N(C)[C@@H](C)C2)c1Cl` [HYBI-084, 5-amino-2-chloro-4-fluoro-N-(4-fluoro-5-(4-(4-methylpiperazine-1-carbonyl)-1H-1,2,3-triazol-1-yl)-2-((3S,5R)-3,4,5-trimethylpiperazin-1-yl)phenyl)-3-methylbenzamide] here?
Answer: > 1000 nM

Question: What about the IC50 (BRD2-BD2) of the same molecule?
Answer: > 1000 nM

Question: And the IC50 (HDAC8)?
Answer: > 1000 nM

Question: And the IC50 (KRAS G12C)?
Answer: > 1000 nM

Question: And the IC50 (KRAS G12V)?
Answer: > 1000 nM

Question: What about the IC50 (POLQ ATPase) of the same molecule?
Answer: > 1000 nM

Question: And the IC50 (POLQPolymerase)?
Answer: > 1000 nM

Question: And the IC50 (PRMT5)?
Answer: > 1000 nM

Question: What about the IC50 (TEAD3) of the same molecule?
Answer: > 1000 nM

Question: What about the F (Mouse PK (oral); 10 mpk) of the same molecule?
Answer: 26.3%

Question: And the F (Mouse PK (oral); 30 mpk)?
Answer: 37.7%

Question: What about the Cmax (Mouse PK (oral); C57/B16, 10 mg/kg, 10 mpk) of the same molecule?
Answer: 359 nM

Question: And the Cmax (Mouse PK (oral); C57/B16, 30 mg/kg, 30 mpk)?
Answer: 1280 nM

Question: And the AUC(0-t) (Mouse PK (oral); 10 mg/kg, 10 mpk)?
Answer: 1.31 µM·h

Question: And the half-life (Mouse PK (oral); 10 mg/kg, 10 mpk)?
Answer: 3.1 h

Question: And the AUC(0-t) (Mouse PK (oral); 30 mg/kg, 30 mpk)?
Answer: 5.64 µM·h

Question: And the half-life (Mouse PK (oral); 30 mg/kg, 30 mpk)?
Answer: 3.5 h

Question: What about the “Relative Abundance (UV Peak Area % Total)” value [1] of the same molecule?
Answer: 63.02%

Question: And the “Relative Abundance (UV Peak Area % Total)” value [2]?
Answer: 71.86%

Question: And the “Relative Abundance (UV Peak Area % Total)” value (Metabolite ID in plasma [3])?
Answer: 92.78%

Question: What about the “Relative Abundance (UV Peak Area % Total)” value (Metabolite ID in plasma [4]) of the same molecule?
Answer: 97.31%

Question: What about the “AUClast Ratio Female/Male” value ([5]; SD rats, 40 mg/kg PO, CSF) of the same molecule?
Answer: 6.66

Question: What about the “C24hr/Cmax Ratio (%)” value ([5]; SD rats, 40 mg/kg PO, CSF, female) of the same molecule?
Answer: 11.6%

Question: And the “AUClast Ratio Tissue/Plasma” value ([5]; SD rats, 40 mg/kg PO, CSF/plasma, male, listed as HBI-2375, 40 mg/kg)?
Answer: 0.0111

Question: What about the “AUClast Ratio Female/Male” value ([5]; SD rats, 40 mg/kg PO, brain) of the same molecule?
Answer: 1.54

Question: What about the “C24hr/Cmax Ratio (%)” value ([5]; SD rats, 40 mg/kg PO, brain, female) of the same molecule?
Answer: 3.24%

Question: What about the “C24hr/Cmax Ratio (%)” value ([5]; SD rats, 40 mg/kg PO, brain, male) of the same molecule?
Answer: 4.18%

Question: What about the “AUClast from high to low” value ([5]; SD rats, 40 mg/kg PO, females) of the same molecule?
Answer: plasma>brain>CSF

Question: What about the “AUClast from high to low” value ([5]; SD rats, 40 mg/kg PO, males) of the same molecule?
Answer: brain>plasma>CSF

Question: What about the “AUClast Ratio Female/Male” value ([5]; SD rats, 40 mg/kg PO, plasma) of the same molecule?
Answer: 2.18

Question: What about the “C24hr/Cmax Ratio (%)” value ([5]; SD rats, 40 mg/kg PO, plasma, female) of the same molecule?
Answer: 1.17%

Question: And the “C24hr/Cmax Ratio (%)” value ([5]; SD rats, 40 mg/kg PO, plasma, male)?
Answer: 0.697%

Question: What about the distribution ([5]; SD rats, single PO 40 mg/kg) of the same molecule?
Answer: distributed to CSF and brain

Question: What about the “duration of exposure in CSF and brain” value ([5]; SD rats, single PO 40 mg/kg) of the same molecule?
Answer: 24 h

Question: What about the in-life observations ([5]; SD rats, single PO 40 mg/kg) of the same molecule?
Answer: no abnormalities were observed

Question: And the AUClast ([5]; SD rats, single PO 40 mg/kg, brain, female)?
Answer: 3394 ng·h/g

Question: What about the AUClast ([5]; SD rats, single PO 40 mg/kg, brain, male) of the same molecule?
Answer: 2199 ng·h/g

Question: What about the “time of maximal concentration” value ([5]; SD rats, single PO 40 mg/kg, brain, males) of the same molecule?
Answer: 15 min

Question: What about the AUClast ([5]; SD rats, single PO 40 mg/kg, brain, mean of male and female) of the same molecule?
Answer: 2796 ng·h/g

Question: And the concentration at 24 h ([5]; SD, brain, Single PO Rat 40 mg/kg, read-out: Mean Brain Concentration, Cmin = 24 h)?
Answer: 22.1 ng/g

Question: And the AUC(0-t) [5, 6]?
Answer: 124 ng·h/mL

Question: And the Cmax [5, 6]?
Answer: 24 ng/mL

Question: What about the MRT last [5, 6] of the same molecule?
Answer: 8.41 h

Question: What about the Tmax ([5]; Sprague-Dawley, SD rats, single PO 40 mg/kg, CSF, female, read-out: Tmax) of the same molecule?
Answer: 1 h

Question: And the AUC(0-t) [5, 7]?
Answer: 18.6 ng·h/mL

Question: What about the Cmax [5, 7] of the same molecule?
Answer: 7.48 ng/mL

Question: What about the MRT last [5, 7] of the same molecule?
Answer: 2 h

Question: And the Tmax ([5]; Sprague-Dawley, SD rats, single PO 40 mg/kg, CSF, male, read-out: Tmax)?
Answer: 1 h

Question: And the Cmax [5, 8]?
Answer: 833 ng/g

Question: What about the MRT last [5, 8] of the same molecule?
Answer: 5.81 h

Question: What about the Tmax ([5]; Sprague-Dawley, SD rats, single PO 40 mg/kg, brain, female, read-out: Tmax) of the same molecule?
Answer: 1 h

Question: What about the Cmax [5, 9] of the same molecule?
Answer: 413 ng/g

Question: And the MRT last [5, 9]?
Answer: 7 h

Question: What about the AUC(0-t) [5, 10] of the same molecule?
Answer: 3660 ng·h/mL

Question: And the Cmax [5, 10]?
Answer: 934 ng/mL

Question: What about the MRT last [5, 10] of the same molecule?
Answer: 5.11 h

Question: And the AUC(0-t) [5, 11]?
Answer: 1680 ng·h/mL

Question: What about the Cmax [5, 11] of the same molecule?
Answer: 544 ng/mL

Question: And the MRT last [5, 11]?
Answer: 4.5 h

Question: And the Tmax ([5]; both sexes, Sprague-Dawley, SD rats, single PO 40 mg/kg, plasma, males and females, read-out: Tmax (time of maximal concentration) (converted))?
Answer: 0.25 h

Question: And the Cmax [5, 12]?
Answer: 623 ng/g

Question: And the MRT last [5, 12]?
Answer: 6.4 h

Question: What about the AUC(0-t) [5, 13] of the same molecule?
Answer: 2670 ng·h/mL

Question: What about the Cmax [5, 13] of the same molecule?
Answer: 739 ng/mL

Question: What about the MRT last [5, 13] of the same molecule?
Answer: 4.8 h

Question: What about the Kp ([5]; female, Sprague-Dawley, CSF/plasma, SD rats, 40 mg/kg PO, CSF/plasma, female) of the same molecule?
Answer: 0.0338

Question: What about the Kp ([5]; female, Sprague-Dawley, brain/plasma, SD rats, 40 mg/kg PO, brain/plasma, female) of the same molecule?
Answer: 0.928

Question: And the AUC(0-t) ([5]; female, Sprague-Dawley, SD rats, single PO 40 mg/kg, brain, females)?
Answer: 3390 ng·h/mL

Question: And the “crossing of the blood-brain barrier” value ([5]; general statement)?
Answer: can cross the blood-brain barrier

Question: What about the Kp ([5]; male, Sprague-Dawley, CSF/plasma, SD rats, 40 mg/kg PO, CSF/plasma, male) of the same molecule?
Answer: 0.011

Question: What about the Kp ([5]; male, Sprague-Dawley, brain/plasma, SD rats, 40 mg/kg PO, brain/plasma, male) of the same molecule?
Answer: 1.31

Question: What about the AUC(0-t) ([5]; male, Sprague-Dawley, SD rats, single PO 40 mg/kg, brain, males) of the same molecule?
Answer: 2200 ng·h/mL

Question: What about the Tmax ([5]; SD rats, single PO 40 mg/kg, brain, male, read-out: Tmax) of the same molecule?
Answer: 0.25 h

Question: What about the Tmax ([5]; SD rats, single PO 40 mg/kg, plasma, female, read-out: Tmax) of the same molecule?
Answer: 0.25 h

Question: And the Tmax ([5]; SD rats, single PO 40 mg/kg, plasma, male, read-out: Tmax)?
Answer: 0.25 h
